The CheMixHub viscosity set

Assay: xn = mol fraction of the nth substance listed

CCOCCO + NC1CCCCC1
308.15 K, 101 kPa
Settings	viscosity [mPa·s]
x1 = 0.1163	1.345
x1 = 0.2284	1.366
x1 = 0.3366	1.391
x1 = 0.4411	1.419
x1 = 0.5421	1.437
x1 = 0.6398	1.457
x1 = 0.7342	1.459
x1 = 0.8257	1.455
x1 = 0.9142	1.45

CNC(C)=O + O=C1CCCO1
viscosity [mPa·s], 101 kPa
Settings	x1 = 0.0549	x1 = 0.1816	x1 = 0.2715	x1 = 0.3602	x1 = 0.4477	x1 = 0.5352	x1 = 0.6411	x1 = 0.7239	x1 = 0.9033
303.15 K	1.516	1.586	1.642	1.719	1.82	1.99	2.215	2.45	3.147
308.15 K	1.408	1.452	1.51	1.572	1.662	1.78	1.979	2.178	2.799
313.15 K	1.338	1.343	1.393	1.447	1.521	1.626	1.805	1.967	2.515
318.15 K	1.213	1.247	1.281	1.334	1.403	1.514	1.665	1.8	2.226

CCOCCO + O=[N+]([O-])c1ccccc1
298.15 K, 101 kPa
Settings	viscosity [mPa·s]
x2 = 0.0476	1.852
x2 = 0.1095	1.858
x2 = 0.2104	1.873
x2 = 0.3134	1.893
x2 = 0.4103	1.916
x2 = 0.4566	1.925
x2 = 0.5011	1.932
x2 = 0.5459	1.936
x2 = 0.6004	1.94
x2 = 0.7008	1.937
x2 = 0.8017	1.921
x2 = 0.8989	1.887
x2 = 0.9525	1.853

CC(C)CCO + COc1ccccc1
viscosity [mPa·s], 101.33 kPa
Settings	x2 = 0.1002	x2 = 0.2	x2 = 0.3005	x2 = 0.3997	x2 = 0.5004	x2 = 0.6014	x2 = 0.7004	x2 = 0.8003	x2 = 0.9008
303.15 K	2.52	2.023	1.657	1.401	1.216	1.087	0.999	0.944	0.916
313.15 K	1.905	1.545	1.283	1.101	0.974	0.893	0.843	0.816	0.801
323.15 K	1.484	1.224	1.036	0.908	0.823	0.769	0.735	0.715	0.701

CCOCCO + Cc1ccc(C)cc1
viscosity [mPa·s], 101 kPa
Settings	298.15 K	308.15 K
x1 = 0.0551	0.632	0.555
x1 = 0.1489	0.672	0.584
x1 = 0.2499	0.725	0.625
x1 = 0.3507	0.792	0.674
x1 = 0.4514	0.875	0.735
x1 = 0.5001	0.922	0.769
x1 = 0.5497	0.975	0.808
x1 = 0.6526	1.106	0.9
x1 = 0.7513	1.262	1.01
x1 = 0.8499	1.456	1.143
x1 = 0.9549	1.717	1.319
